How the values were obtained:
[1] = test system: inflammatory responses elicited by topically applied phorbol myristate acetate (PMA) or topically applied arachidonic acid (AA); assay: Topical mouse ear assay (TME), edema; type: in vivo; details: PMA or AA challenge (which not stated), N=5 mice/group
Method: TABLE II Topical Mouse Ear Assay
Method: The right ears of mice (5 mice per group) were treated topically with either […] or 1000 μg AA alone or with the test compound in 25 μl of vehicle. The vehicle was water/pyridine/acetone (1:2:97). A control group of mice received the vehicle only. The mice were allowed food and water ad libitum during the treatment period; 2 hours for AA and 4 hours for PMA. The mice were sacrificed by cervical dislocation and a 6 mm diameter disc of tissue punched from both the treated and untreated ears. The tissue biopsies were immediately weighed and the weight increase of the treated ear relative to the weight of the untreated ear determined.
All of the data are expressed as the mean±SEM, N=5 mice/group.

[2] = test system: erythema induced on the skin of guinea pigs by UV radiation; assay: U.V. erythema assay; type: in vivo; details: topical, mean of 3 animals
Method: The U.V. erythema assay by which topical anti-inflammatory activity is determined, is based on the ability of the compounds of Formula I to inhibit the erythema induced on the skin of guinea pigs by UV radiation. It has been substantiated by recent studies that prostaglandin synthesis and the release thereof may be the primary process involved in the production of erythema. A protocol of the assay and some results thereof are summarized below in Table III.
Guinea pigs were depilated and stabilized for 30 minutes. Following anesthesia with Nembutal (35 mg/kg), they were exposed to a U.V. lamp for 45 minutes at a distance of seven inches from the abdominal surface. Compound was applied topically (seven applications in a total of 0.1 ml vehicle) 15 minutes post exposure. […]
Vehicle 1774--85% EtOH, 12% Propylene Glycol, 3% Methyl Salicylate
A numerical value 0-5 was assigned to the degree of erythema observed under standard lighting conditions. Drug effect on the developing erythema was calculated as follows: [formula] Results: % Inhibition of Erythema by (a) N-(2-hydroxy-5-methoxybenzyl)aniline

[3] = test system: inflammatory responses elicited by topically applied phorbol myristate acetate (PMA) or topically applied arachidonic acid (AA); details: previously established; cited from earlier work

COc1ccc(O)c(CNc2nc3ccccc3[nH]2)c1 [C, 2-(2-hydroxy-5-methoxybenzylamino)benzimidazole]
Edema (% inhibition) ([1]; dosage 300 μg): 80%

COc1ccc(O)c(CNc2cccs2)c1 [A, 2-(2-hydroxy-5-methoxybenzylamino)thiophene]
Edema (% inhibition) ([1]; dosage 300 μg): 77%

COc1ccc(O)c(CNc2ccccc2)c1 [N-(2-hydroxy-5-methoxybenzyl)aniline]
% Inhibition of Erythema, 2 Hr. ([2]; 0.1 mg): 19.3%
% Inhibition of Erythema, 3 Hr. ([2]; 0.1 mg): 16.7%
% Inhibition of Erythema, 4 Hr. ([2]; 0.1 mg): 15.0%
% Inhibition of Erythema, 6 Hr. ([2]; 0.1 mg): 6.7%
% Inhibition of Erythema, 24 Hr. ([2]; 0.1 mg): 0%
% Inhibition of Erythema, 2 Hr. ([2]; 0.3 mg): 55.3%
% Inhibition of Erythema, 3 Hr. ([2]; 0.3 mg): 50.0%
% Inhibition of Erythema, 4 Hr. ([2]; 0.3 mg): 46.7%
% Inhibition of Erythema, 6 Hr. ([2]; 0.3 mg): 35.0%
% Inhibition of Erythema, 24 Hr. ([2]; 0.3 mg): 0%
% Inhibition of Erythema, 2 Hr. ([2]; 1.0 mg): 80.3%
% Inhibition of Erythema, 3 Hr. ([2]; 1.0 mg): 91.7%
% Inhibition of Erythema, 4 Hr. ([2]; 1.0 mg): 76.7%
% Inhibition of Erythema, 6 Hr. ([2]; 1.0 mg): 63.3%
% Inhibition of Erythema, 24 Hr. ([2]; 1.0 mg): 26.7%
% Inhibition of Erythema, 2 Hr. ([2]; 3.0 mg): 100%
% Inhibition of Erythema, 3 Hr. ([2]; 3.0 mg): 100%
% Inhibition of Erythema, 4 Hr. ([2]; 3.0 mg): 63.3%
% Inhibition of Erythema, 6 Hr. ([2]; 3.0 mg): 43.3%
% Inhibition of Erythema, 24 Hr. ([2]; 3.0 mg): 33.3%

COc1ccc2c(c1)c(CC(=O)O)c(C)n2C(=O)c1ccc(Cl)cc1 [Indomethacin, reference compound]
Edema (% inhibition) ([1]; dosage 1000 μg): 88%
activity in the topical mouse ear assay [3]: active

COc1ccc(O)c(CNc2cccc3nsnc23)c1 [B, 4-(2-hydroxy-5-methoxybenzylamino)-2,1,3-benzothiadiazole]
Edema (% inhibition) ([1]; dosage 300 μg): 44%

C[C@@H]1C[C@H]2[C@@H]3CCC4=CC(=O)C=C[C@]4(C)[C@@]3(F)[C@@H](O)C[C@]2(C)[C@@]1(O)C(=O)CO [Dexamethasone, reference compound]
Edema (% inhibition) ([1]; dosage 150 μg): 100%
activity in the topical mouse ear assay [3]: active
